Data on 16 molecules can be found in ChEMBL document CHEMBL3421545, “Discovery of novel non-covalent inhibitors selective to the β5-subunit of the human 20S proteasome” (Eur J Med Chem, 2015).

For assay [1], the target named is T1, Proteasome Macropain subunit MB1 (Homo sapiens, UniProt P28074).
T1 sequence (P28074 whole entry): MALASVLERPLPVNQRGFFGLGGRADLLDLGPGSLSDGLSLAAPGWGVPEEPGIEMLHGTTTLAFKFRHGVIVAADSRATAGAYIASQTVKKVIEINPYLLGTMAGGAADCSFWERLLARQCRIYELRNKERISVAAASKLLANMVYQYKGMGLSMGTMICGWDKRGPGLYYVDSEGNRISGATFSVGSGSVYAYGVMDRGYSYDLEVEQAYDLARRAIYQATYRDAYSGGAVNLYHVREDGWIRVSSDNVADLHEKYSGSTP
As to the kind of experiment: Inhibition of chymotrypsin-like activity of human beta-5 subunit of 20S proteasome using Suc-LLVY-AMC as substrate by fluorometer analysis.

For assay [2], the target named is Proteasome subunit beta type-6, β1, caspase-like (Homo sapiens) (UniProt P28072). The assay can be described thus: Inhibition of caspase-like activity of human beta-1 subunit of 20S proteasome using (Z)-LLE-bNA as substrate at 10 ug/ml by fluorometer analysis.
Assay [3] deals with Proteasome subunit beta type-7, β2, trypsin-like (Homo sapiens) (UniProt Q99436). The assay can be described thus: Inhibition of trypsin-like activity of human beta-2 subunit of 20S proteasome using Bz-VGR-AMC as substrate at 10 ug/ml by fluorometer analysis.
Assay [4] in a line: Inhibition of chymotrypsin-like activity of 20S proteasome isolated from human THP1 cells using Suc-Leu-Leu-Val-Tyr-MCA as substrate by fluorometer analysis. The conditions noted are these: thp-1. The assay is classed as cell-free.

Sequence of Proteasome subunit beta type-6, β1, caspase-like (Homo sapiens) (P28072 whole entry, looked up): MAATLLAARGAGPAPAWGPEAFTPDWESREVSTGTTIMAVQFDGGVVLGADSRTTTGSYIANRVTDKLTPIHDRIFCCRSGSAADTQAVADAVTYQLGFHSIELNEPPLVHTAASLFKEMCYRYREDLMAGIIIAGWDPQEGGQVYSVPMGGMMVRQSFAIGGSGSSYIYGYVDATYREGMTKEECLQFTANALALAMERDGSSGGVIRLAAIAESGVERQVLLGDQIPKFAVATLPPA
Sequence of Proteasome subunit beta type-7, β2, trypsin-like (Homo sapiens) (Q99436 whole entry, looked up): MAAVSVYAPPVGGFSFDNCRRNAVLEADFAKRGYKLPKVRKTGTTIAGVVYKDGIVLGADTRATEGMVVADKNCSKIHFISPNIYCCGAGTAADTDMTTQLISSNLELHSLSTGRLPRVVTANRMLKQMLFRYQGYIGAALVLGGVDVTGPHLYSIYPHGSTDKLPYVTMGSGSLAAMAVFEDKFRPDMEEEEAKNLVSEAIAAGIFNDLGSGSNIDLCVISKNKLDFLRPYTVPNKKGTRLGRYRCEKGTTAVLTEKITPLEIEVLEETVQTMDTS

What is called IC50 is the midpoint of a concentration-inhibition curve. `CC(C)[C@H](NC(=O)[C@H](CC(N)=O)NC(=O)Cc1cccc(Oc2ccccc2)c1)C(=O)OCc1ccccc1`: in assay [1] (read-out: IC50), the IC50 is 17.3 µM.

For orientation: inhibition means the relative decrease from the control value, in per cent. A high value points to a strong effect. `CC(C)[C@H](NC(=O)[C@H](CC(N)=O)NC(=O)Cc1cccc(Oc2ccccc2)c1)C(=O)N[C@H](C(=O)OCc1ccccc1)[C@H](C)O`: the IC50 in assay [1] (read-out: IC50) turned out to be 0.92 µM. Also, the inhibition in assay [2] and in assay [3] was under 50% throughout.

Take `CC(C)[C@H](NC(=O)[C@H](CC(N)=O)NC(=O)Cc1cccc(Oc2ccccc2)c1)C(=O)O`: the concentration for half-maximal inhibition (IC50) result in assay [1] is given as “Not Active”.

For `COc1ccc(CNC(=O)[C@@H](NC(=O)[C@H](CCCCNC(=O)OCc2ccccc2)NC(=O)Cc2cccc(Oc3ccccc3)c2)C(C)C)c(O)c1`, the IC50 in assay [1] (read-out: IC50) is 11.7 µM.

With `C/C=C\NC(=O)[C@H]1NC(=O)[C@@H](CC(N)=O)NC(=O)[C@@H](NC(=O)C(=O)[C@@H](C)CC)Cc2ccc(O)c(c2)-c2cccc3c2NC(=O)[C@@]3(O)[C@@H]1O`, half-maximal inhibition in assay [4] (IC50) required 0.0054 µM.

In the case of `CCCNC(=O)[C@@H](NC(=O)[C@H](CC(N)=O)NC(=O)Cc1cccc(Oc2ccccc2)c1)C(C)C`, in assay [1] (read-out: IC50), the IC50 came to 13 µM.

Regarding `COc1ccc(CNC(=O)[C@@H](NC(=O)[C@H](CCCCN)NC(=O)Cc2cccc(Oc3ccccc3)c2)C(C)C)c(O)c1`, the IC50 result in assay [1] is “Not Active”.

Take `COc1ccc(CNC(=O)[C@@H](NC(=O)[C@H](CC(N)=O)NC(=O)Cc2cccc(Oc3ccccc3)c2)C(C)C)c(O)c1`: the IC50 in assay [1] (read-out: IC50) was found to be 0.66 µM. The inhibition in assay [2] and in assay [3] was under 50% throughout.

On to `CC(C)[C@H](NC(=O)[C@H](CC(N)=O)NC(=O)Cc1cccc(Oc2ccccc2)c1)C(=O)N[C@H](C(=O)O)[C@H](C)O`, for which the IC50 in assay [1] (read-out: IC50) was 13.9 µM.

Regarding `CC(C)[C@H](NC(=O)[C@H](CC(N)=O)NC(=O)Cc1cccc(Oc2ccccc2)c1)C(=O)N[C@H](C)c1ccccc1`, in assay [1], the IC50 result is “Not Active”.

For the molecule `COC(=O)[C@@H](NC(=O)[C@@H](NC(=O)[C@H](CC(N)=O)NC(=O)Cc1cccc(Oc2ccccc2)c1)C(C)C)[C@H](C)O`, the IC50 in assay [1] (read-out: IC50) amounted to 0.29 µM. Besides, the inhibition in assay [2] and in assay [3] was under 50% each time.

Regarding `CC(C)[C@H](NC(=O)[C@H](CC(N)=O)NC(=O)Cc1cccc(Oc2ccccc2)c1)C(=O)N[C@@H](C)c1ccccc1`, in assay [1], the concentration for half-maximal inhibition (IC50) result is “Not Active”.

On to `COc1ccc(CNC(=O)[C@@H](NC(=O)[C@H](CC(N)=O)NC(=O)Cc2cccc(Oc3ccccc3)c2)C(C)C)c(OC)c1`, for which the IC50 entry in assay [1] is recorded as “Not Active”.

As for `COc1ccc(CNC(=O)[C@@H](NC(=O)[C@H](CCC(N)=O)NC(=O)Cc2cccc(Oc3ccccc3)c2)C(C)C)c(O)c1`, the IC50 in assay [1] (read-out: IC50) worked out at 1.63 µM.

For `CC(C)[C@H](NC(=O)[C@H](CC(N)=O)NC(=O)Cc1cccc(Oc2ccccc2)c1)C(=O)NCCO`, the IC50 in assay [1] (read-out: IC50) came to 17.2 µM.

For the molecule `CC(C)[C@H](NC(=O)[C@H](CC(N)=O)NC(=O)Cc1cccc(Oc2ccccc2)c1)C(=O)NCCc1ccccc1`, the IC50 entry in assay [1] is given as “Not Active”.
